Source: US10662225B2, “Backbone cyclized inhibitory peptides of myeloid differentiation factor 88 (MyD88)” (Yissum Research Development Company of the Hebrew …, priority 2016, dated 2020)
“Also recorded” adds a separate entry of the source. Numbered stars: 1 amine (or outer) side, 2 acyl side, 3 side chain; on linkers, the order of the positions; unused ones are H or OH. Bridge positions count the residues as written; N and C are the ends. Square brackets hold non-standard residues; d marks the D form. Peptide text beside a SMILES is read from it. CO = O=C([*:1])[*:2]; Nlys = NCCCCNCC(=O)O

System: MOG35-55/CFA induced EAE
Experiment: MOG35-55/CFA induced EAE model of multiple sclerosis
Format: in vivo, mice
Protocol: FIG. 2. MIP treatment reduces severity of EAE. Mice were immunized with MOG35-55/CFA with PTX administration at day 0 and at 48 h. Groups of mice were treated with MIP (SEQ ID NO: 1, squares) or PBS (triangles) and mean clinical score was calculated.
FIG. 8. 4×4MyDI lowers disease in mouse EAE model. Mice were immunized with MOG35-55/CFA with PTX administration at day 0 and at 48 h. Groups of mice were treated with 4×4MyDI (squares, n=7) or PBS as control (circles, n=4) from day 0, three times a week.
FIG. 15. 4×4MyDI reduces severity of EAE. C57BL/6 mice were immunized with MOG35-55/CFA and administered pertussis toxin on day zero and after 48 h. Groups of mice were treated with 4×4MyDI at 4 mg/kg from day zero, three times a week, for a total of 9 treatments (squares, n=7) or an identical volume of PBS as control, using the same schedule of administration (circles, n=7). […] Clinical disease was scored daily. ***P<0.0001, 2-way ANOVA.
Effective peptides are examined for treatment of mice with EAE (the animal model of MS) applying several disease models. One model is described in Owens T. and Sriram S. Neurologic Clinics (1995) 13(1):51-73. In this model, C57B1 mice are immunized with the MOG protein in adjuvant and the onset of paralysis which appears 10-14 days following the induction, is evaluated daily. Two groups of animals are treated with two doses of the peptide administered orally by cannula on a daily basis, from the day of EAE-induction. One month after the disease onset, the animals are sacrificed and their brains and spinal cords are processed for histopathological analysis (performed by a blinded for the treatment arm, neuropathologist). This includes the evaluation of the number of inflammatory infiltrates and the number of cells per infiltrate, the degree of demyelination and of axonal damage. Another EAE model for MS which can be used for the compounds of the present invention and for identifying additional Myd88 inhibitors is described in Prinz et al 2006, J Clin Investigation, 116, 2 456-464, and Cohen et al 2010, J Immunol 184(1):212-21). In this model, C57B1 mice are immunized with MOG35-55 peptide ([…], SEQ ID NO: 4) emulsified in complete Freund's adjuvant (CFA) and pertussis toxin is administered systemically at the time of immunization and 48 h later. Mice are treated with the Myd88 inhibitor systemically and the mice are followed for development of ascending paralysis which typically begins on day 8-10 following immunization.
The effect of MIP administration on the clinical outcome of MOG35-55/CFA induced EAE was tested. […]
Following bioactivity characterization in vitro, the lead compound was evaluated for efficacy using the in vivo murine MOG35-55-induced EAE model of multiple sclerosis. […]

With `CC(C)C[C@@H]1NC(=O)[C@H](C(C)C)NC(=O)[C@H](CC(=O)O)NC(=O)[C@H](CCCNC(=N)N)NC(=O)CN(C(=O)[C@@H](N)Cc2c[nH]c3ccccc23)CCCCNC(=O)NCCCCN(CC(=O)NCC(=O)N[C@H](C(N)=O)[C@@H](C)O)C1=O` [4×4MyDI] (H-W[Nlys]RDVL[Nlys]GT-NH2; linker 2-7 via CO; N-terminus assumed) the EAE disease severity (4 mg/Kg i.p. three times a week from day 0) was “significant reduction in disease severity; also recorded: significantly reduced disease severity”, the EAE disease severity (4 mg/Kg i.p. three times a week from day 7) was “behaved similarly to the control group” and the EAE disease severity (40 mg/Kg on day zero and day three only) was “reduced disease severity even further”. For the same compound, the survival (4×4MyDI from day 0, three times a week, vs PBS) was “better rate of survival”.
